Results published in patent publication US20250206704A1, “ENGINEERED IONOPHORES FOR TRANSPORT OF METAL IONS” (The Brigham and Women's Hospital, Inc., priority 2022, published 2025).
Values after ≈ are worked out from the molar mass of the structure shown. “Also recorded” adds a separate entry of the source. Where two headings read alike, the source gives them in different places.

Legend:
U2OS cells [1] = assay: ICP-MS analysis of intracellular Zn(II) in U2OS cells; format: cell-based; details: 10 μM Zn(II) and 5 μM compound, 1 hour
Description: Next, Applicants used inductively coupled plasma mass spectrometry (ICP-MS) to validate the imaging assay and the ionophores activity (FIG. 1F). While the intracellular Zn^II levels where similar between DMSO and chelator 1, Zn^II concentrations inside cells were 3-fold higher when Applicants co-treated ionophores 8 and 9.
U2OS cells (˜200,000) were plated in a 6-well dish. After a day, the medium was aspirated, and Zn(II) (10 μM) and compounds (5 μM) containing media (2 mL) were added to each appropriate well. Cells were harvested by first washing each well with PBS containing EDTA (100 μM, 2×2.0 mL) and subsequently adding Milli-Q water ([…] to each well and incubating for 2-4 min. A portion of the resulting cell lysate (900 μL) was collected and transferred to an Eppendorf Safe-Lock tube, snap-frozen in N2(l), and then thawed at room temperature (RT) for a total of three freeze-thaw cycles. The insoluble lysate was pelleted (10 min at 10,000 g), and the soluble protein concentration of each sample was determined using the Pierce 660 nm Protein Assay in a 96-well plate (200 μL of reagent, 14 μL of sample, bovine serum albumin standard curve). Samples were then frozen and lyophilized overnight, and the resulting white, flaky solid was taken up in concentrated nitric acid (200 μL, ultrapure for trace metal analysis, BDH Aristar) and heated at 70° C. for 1 h. A portion of each sample (142 μL) was then diluted with water (2 mL) and a terbium internal standard (Agilent 5190-8590; stock at 10,000 parts per billion [ppb] in 10% nitric acid diluted to 100 ppb in Milli-Q water for addition to samples, 2 ppb final concentration), after which the metal content of the samples was assessed by ICP-MS. […] Therefore, 1 ppb was taken to be equal to 1 μg/L, and the molarity of a particular solution was considered equal to the measured concentration of a particular ion in ppb, divided by the molecular weight of the ion, multiplied by 10-6.

[2] = UV/Vis titration, stability constant (logK) with ZnCl2; format: physicochemical; details: UV/Vis titration with ZnCl2, TitrationFit
From the text: Applicants validated the design principles by confirming that the silyl group lowered the binding affinity and shielded the hydrophilic pocket. […] [17] […] Applicants confirmed that all compounds bound Zn^II with 1:1 stoichiometry (FIG. 12). […] Applicants superimposed the X-ray structure of the TIPS-containing Zn^II:9 complex with the literature precedented Zn^II:1 and observed significant structural distortion in the Zn^II:9 complex, which could explain the lower logK.
A solution of ligand was prepared in acetonitrile. The starting concentration was chosen to be around 0.10 mM, based on the absorption maximum of the compound. This solution (2.5 mL) was pipetted into a quartz cuvette with a 1-cm optical path length. The titration was performed by the stepwise addition of a 10-mM ZnC12 solution in acetonitrile. The absorption spectra were measured over the range of 250-800 nm. The calculation of the stability constants was accomplished using TitrationFit.1

[3] = test system: Staphylococcus epidermidis; assay: MIC, broth microdilution; format: cell-based
From the text: (§1) Next, Applicants evaluated the antibacterial activities of the ionophores. First, Applicants determined their minimum inhibitory concentration (MIC) in the gram-positive bacterium that causes hospital-acquired infections, Staphylococcus epidermidis.
(§2) Applicants reasoned that limiting extracellular zinc with EDTA would abolish ionophore activity by depleting the available metal ions for membrane transport. […] [24]
(§3) Staphylococcus epidermidis ATCC® 12228™, Staphylococcus caprae ATCC® 51549™, Bacillus subtilis ATCC® 6051™, and Bacillus cereus ATCC® 14579™ were grown in cation-adjusted Mueller-Hinton broth (CA-MHB) (catalog no. 90922, Sigma) as per the Clinical and Laboratory Standards Institute guidelines.2 Bacteria were routinely grown at 37° C. under aerobic conditions.
(§4) The MIC assay was performed according to the Clinical and Laboratory Standards Institute protocols.^3 The antibacterial activities of the compounds were measured using the broth microdilution method. Serial dilutions of compounds were prepared in cation-adjusted Müller Hinton Broth. Each dilution (100 μL) was dispensed to each well of a round-bottom plate to obtain final concentrations ranging from 0.07815-40 μM. Bacteria were grown at 37° C. overnight on cation-adjusted Müller Hinton Broth. The bacterial solution was prepared in 0.9% saline and adjusted to obtain an OD600=0.1 using a SpectraMax M5 (Molecular Devices). The resultant suspension was diluted 1:20 with cation-adjusted Müller Hinton Broth. The resulting mixture (10 μL) was added to each well of the plates (approximately 5×10^4 CFU/well), mixed, and incubated at 37° C. for 24 h. The MIC value was determined as the minimum concentration that inhibited the growth of bacteria.

U2OS cells [4] = assay: Zinc imaging assay (DA-ZP1 fluorescence) of ionophore activity in U2OS cells; format: cell-based; details: U2OS cells; for ionophore activity (Zn^II transport, DA-ZP1 fluorescence): 10 μM Zn(II) and 10 μM compound, 1 hour, then DA-ZP1; for concentration at which ionophore activity is displayed: DA-ZP1, comparison with known ionophores; for ionophore activity (DA-ZP1 fluorescence): 10 μM Zn(II) and 5 μM compound
From the text: A number of bispicolyl-based Zn^II-chelators were synthesized with increasing size at the ortho-position of phenolic OH by a one-step reductive amination between bispicolyl-amine and commercially available 3-substituted salicylaldehydes. Applicants examined the ionophore activity of bispicolyl analogs with methyl (Me, 2), isopropyl (iPr, 3), and tert-butyl (tBu, 4) substitutions (FIG. 1A). […] [13] The cells were first treated with ZnCl2 and ionophore candidates followed by DA-ZP1 treatment and fluorescence measurement.
Applicants experimentally determined the ionophore activity of these silyl-based compounds using the aforementioned DAZ-P1 assay in U2OS cells.
Applicants also determined metal-ion interference of the silyl-based ionophores with focused efforts on 8. Applicants designed a competition assay wherein Applicants pre-treated equimolar amounts of various metal ions, Mg^II, Ca^II, Mn^II, Fe^II, and Na^I, with 10 μM of Zn^II for 1 hour before treatment with DA-ZP1.
Finally, Applicants compared the activity of the designed compounds against known ionophores (FIGS. 2 and 11). […] [16]
In a 96-well plate, 20,000 U2OS cells were plated per well and cultured for 24 h in the incubator set to 37° C. with 5% CO2. […] The medium containing the compound was removed, and the cells were washed with 3×100 μL of fresh medium, and finally another 100 μL of 2 μM of DA-ZP1 was added to the corresponding cell culture medium containing HCS NuclearMask Blue Stain. The cells were again kept for 1 h in the incubator. The medium containing compound was removed, and the cells were washed with 1×100 μL of PBS and 2×100 μL of fresh medium, and finally, another 100 μL of fresh, dye-free medium was added. The cells were immediately imaged using a high-content fluorescence microscope (Operetta Phenix) in both the DAPI and FITC channels at 20× magnification. Images were analyzed using the Harmony software, and data were plotted using GraphPad Prism 9.

[5] = value quoted for comparison; cited from earlier work
[6] = test system: S. epidermidis, S. caprae, B. subtilis, B. cereus; assay: Average MIC over the four gram-positive strains; format: cell-based
Description: as §1, §4

Bacillus subtilis = assay: MIC, broth microdilution; format: cell-based; details: read-out: Strain MIC B. subtilis
Description: as §1, §3, §4

Staphylococcus caprae = assay: MIC, broth microdilution; format: cell-based; details: read-out: Strain MIC S. caprae
Description: as §1, §3, §4

Bacillus cereus = assay: MIC, broth microdilution; format: cell-based; details: read-out: Strain MIC B. cereus
Description: as §1, §3, §4

bacteria vs U2OS cells = assay: Antibacterial selectivity (average molar MIC in bacteria vs EC50 in U2OS cells); format: cell-based
U2OS cells [7] = assay: U2OS cell viability assay (CellTiter-Glo); format: cell-based; details: Homo sapiens, 48 h, read-out: U2OS EC50 + 5 μM Zn^II
Description: as §2
U2OS cells were seeded in black 384-well plates at a density of 3,000 cells per well in 25 μL of medium per well. After seeding, the cells were left to adhere overnight. The compounds to be tested were added to the designated culture plates in 25 μL of medium in triplicate with a normalized DMSO concentration (0.05%) in all treatments, and the plates were placed at 37° C. in a humidified atmosphere containing 5% CO2. After 48 h, 40 μl of CellTiter-Glo (Promega) was added to each well and incubated for 30 min, after which the plate luminescence was analyzed in a PerkinElmer EnVision Manager 1.13 (PerkinElmer). The average growth of treated cells was calculated by correcting the values for background luminescence and was subsequently normalized to the average of the two lowest treatments of the compound in question. Data were plotted and fitted to a dose-response curve using GraphPad Prism 9.

Oc1ccccc1CN(Cc1ccccn1)Cc1ccccn1 [Compound 1, 2-((bis(pyridin-2-ylmethyl)amino)methyl)phenol]
intracellular Zn^II level relative to DMSO (U2OS cells [1]): similar
logK (Zn^II binding) [2]: 12.5

CC[C@@H](C(=O)O)[C@@H]1O[C@@H]([C@@H](C)[C@H](O)[C@H](C)C(=O)[C@H](CC)[C@H]2O[C@]3(C=C[C@@H](O)[C@]4(CC[C@@](C)([C@H]5CC[C@](O)(CC)[C@H](C)O5)O4)O3)[C@H](C)C[C@@H]2C)[C@@H](C)C[C@@H]1C [narasin, reference compound]
MIC ([3]; read-out: MIC): 0.96 µg/mL (≈ 1.25 µM)

CC[C@@H](C(=O)[C@@H](C)[C@@H](O)[C@H](C)[C@@H]1O[C@@H]([C@@H](CC)C(=O)O)CC[C@@H]1C)[C@H]1O[C@]2(C=C[C@@H](O)[C@]3(CC[C@@](C)([C@H]4CC[C@](O)(CC)[C@H](C)O4)O3)O2)[C@H](C)C[C@@H]1C [salinomycin, reference compound]
MIC [3]: 1.88 µg/mL (≈ 2.5 µM)

CC(C)(C)c1ccc(O)c(CN(Cc2ccccn2)Cc2ccccn2)c1 [Compound 5, 2-((bis(pyridin-2-ylmethyl)amino)methyl)-4-(tert-butyl)phenol]
antibacterial activity ([3]; control compound): no ionophore activity in U2OS cells or antibacterial activity
ionophore activity (Zn^II transport, DA-ZP1 fluorescence) (U2OS cells [4]): poor ionophore activity; also recorded: no ionophore activity

CC(C)(C)c1cccc(CN(Cc2ccccn2)Cc2ccccn2)c1O [Compound 4, 2-((bis(pyridin-2-ylmethyl)amino)methyl)-6-(tert-butyl)phenol]
MIC ([3]; read-out: MIC): 7.2 µg/mL (≈ 19.9 µM)
ionophore activity (Zn^II transport, DA-ZP1 fluorescence) (U2OS cells [4]): efficiently transported Zn^II

c1ccc(CN(CCN(Cc2ccccn2)Cc2ccccn2)Cc2ccccn2)nc1 [TPEN, reference compound]
logK (Zn^II binding) of known chelator/ionophore [5]: 15.5

CC(C)(C)n1ccn([BH-](n2ccn(C(C)(C)C)c2=S)n2ccn(C(C)(C)C)c2=S)c1=S.[K+] [potassium hydrotris(N-tert-butyl-2-thioimidazolyl) borate, reference compound]
concentration at which ionophore activity is displayed (U2OS cells [4]): 5 µM

[O-][n+]1ccccc1S [Pyrithione, pyrithione, reference compound]
MIC ([6]; read-out: Average MIC): 1.1 µg/mL
MIC ([6]; read-out: Average MIC (molar, in brackets)): 8.7 µM
MIC ([6]; read-out: average MIC): 1.1 µg/mL
MIC [3]: 1.3 µg/mL (≈ 10.2 µM)
MIC ([3]; read-out: Strain MIC S. epidermidis): 1.3 µg/mL (≈ 10.2 µM)
MIC (Bacillus subtilis): 1.3 µg/mL (≈ 10.2 µM)
MIC (Staphylococcus caprae): 0.6 µg/mL (≈ 4.72 µM)
MIC (Bacillus cereus): 1.3 µg/mL (≈ 10.2 µM)
concentration at which ionophore activity is displayed (U2OS cells [4]): 5 µM
antibacterial selectivity (bacteria vs U2OS cells): 0.11 times
selective toxicity to bacterial cells over mammalian cells (bacteria vs U2OS cells): 0.1 fold
antibacterial selectivity (bacteria vs U2OS cells; ratio of average molar MIC and U2OS EC50, Table 4): 0.11
CC50 (U2OS cells [7]): 990 nM

CNc1ccc2oc(C[C@H]3O[C@@]4(CC[C@H]3C)O[C@H]([C@H](C)C(=O)c3ccc[nH]3)[C@H](C)C[C@H]4C)nc2c1C(=O)O [calcimycin, reference compound]
MIC [3]: ~0.16 µg/mL (≈ 0.306 µM)

CC[Si](CC)(CC)c1cccc(CN(Cc2ccccn2)Cc2ccccn2)c1O [Compound 7, 2-((bis(pyridin-2-ylmethyl)amino)methyl)-6-(triethylsilyl)phenol]
MIC ([3]; read-out: MIC): ~8.4 µg/mL (≈ 20 µM)

C[C@H](CCC(=O)O)C[C@H](C)C[C@H](C)C(=O)/C=C(\O)[C@H](C)C[C@H](C)C/C=C/[C@@H](C)[C@@H](O)[C@@H](C)[C@@H](O)C[C@@H]1CC[C@@](C)([C@H]2CC[C@@](C)([C@@H](C)O)O2)O1 [ionomycin, reference compound]
MIC [3]: 15 µg/mL (≈ 21.2 µM)

C[Si](C)(C)c1cccc(CN(Cc2ccccn2)Cc2ccccn2)c1O [Compound 6, 2-((bis(pyridin-2-ylmethyl)amino)methyl)-6-(trimethylsilyl)phenol]
MIC ([3]; read-out: MIC): ~7.5 µg/mL (≈ 19.9 µM)
ionophore activity (DA-ZP1 fluorescence) (U2OS cells [4]): elicited detectable fluorescence

CC(C)(C)[Si](c1ccccc1)(c1ccccc1)c1cccc(CN(Cc2ccccn2)Cc2ccccn2)c1O [Compound 10, 2-((bis(pyridin-2-ylmethyl)amino)methyl)-6-(tert-butyldiphenylsilyl)phenol]
MIC ([3]; read-out: MIC): ~5.4 µg/mL (≈ 9.93 µM)
ionophore activity (DA-ZP1 fluorescence) (U2OS cells [4]): decreased the activity
